pIC50: −log10 of the molar value. *1 amine or outer side, *2 acyl side, *3 side chain or, on linkers, in order; H or OH if unused. Where a SMILES comes first, the peptide text is derived from it. Bridges are numbered along the chain shown (N, C = ends). [ ]: non-standard residue; d: D form. The star is where a group is joined. ξ: configuration not given here. Phe(4-COOH) = N[C@@H](Cc1ccc(C(=O)O)cc1)C(=O)O; Bip = N[C@@H](Cc1ccc(-c2ccccc2)cc1)C(=O)O; Phe(3-Me) = Cc1cccc(C[C@H](N)C(=O)O)c1; γGlu = O=C(O)[C@H](CCC(=O)[*:2])N[*:1]; hArg = N=C(N)NCCCC[C@H](N)C(=O)O; 4Pal = N[C@@H](Cc1ccncc1)C(=O)O; Cha = N[C@@H](CC1CCCCC1)C(=O)O; Ile(3ξ) = CCC(C)[C@H](N)C(=O)O; Thr(3ξ) = CC(O)[C@H](N)C(=O)O; Ala(CN) = N#CC[C@H](N)C(=O)O; 12Ado = NCCCCCCCCCCCC(=O)O; Carboxymethyl = O=C(O)C*; NMeA = CN[C@@H](C)C(=O)O; Orn = NCCC[C@H](N)C(=O)O; dDap = NC[C@@H](N)C(=O)O; Aun = NCCCCCCCCCCC(=O)O; Dab = NCC[C@H](N)C(=O)O; Dap = NC[C@H](N)C(=O)O; AEEA = NCCOCCOCC(=O)O

By pIC50 is commonly meant the IC50 on a negative log10 scale, so that one unit is a factor of ten.

T1 sequence (Q15116 25-288): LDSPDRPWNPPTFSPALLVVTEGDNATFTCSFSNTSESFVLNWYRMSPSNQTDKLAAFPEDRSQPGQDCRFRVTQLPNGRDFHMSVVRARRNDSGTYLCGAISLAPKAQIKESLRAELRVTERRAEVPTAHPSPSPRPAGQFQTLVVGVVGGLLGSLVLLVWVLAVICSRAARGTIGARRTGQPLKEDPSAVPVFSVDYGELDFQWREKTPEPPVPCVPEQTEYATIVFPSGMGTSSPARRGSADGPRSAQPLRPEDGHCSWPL

The assay concerns the target T1, PD-1/PD-L1 interaction (PE-labeled human PD-L1-Ig binding to Jurkat cell line over-expressing human PD-1) (Homo sapiens, UniProt Q15116).
T1 construct: expressed in transfected cells; host or cells: Jurkat
In words: Jurkat-PD-1 Cell Binding High-Content Screening Assay (CBA). The following applies: Jurkat-hPD-1 cells, PE-labeled PD-L1-Ig 20 nM final; read-out: Jurkat HPD1 PDL1 IC50. An outline of the steps:
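Jurkat cells overexpressing human PD-1 (8×10^3/well, DMEM + 10% FCS) preincubated with compound 2 h at 37 °C, then PE-labelled human PD-L1-Ig (20 nM final) for 1 h. Cells fixed in paraformaldehyde with Hoechst 33342; bound PD-L1 quantified by high-content imaging.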
Take `CC(C)C[C@@H]1NC(=O)[C@H](Cc2c[nH]c3ccccc23)NC(=O)[C@H](CC(=O)O)NC(=O)[C@H](Cc2ccc(OCC(=O)O)cc2)NC(=O)[C@H](Cc2ccc(OCC(=O)O)cc2)NC(=O)CSC[C@@H](C(=O)N[C@@H](CCN)C(=O)NCCOCCOCC(=O)NCCCCCCCCCCC(=O)O)NC(=O)[C@H](CO)NC(=O)[C@H](C(C)C)NC(=O)[C@H](CC(C)C)NC(=O)[C@H](CCN)NC(=O)[C@@H](CC(C)C)NC(=O)[C@H](C)N(C)C(=O)[C@H](C(C)C)NC(=O)[C@H](Cc2ccc(-c3ccccc3)cc2)NC1=O` [Example 2039] ({CH2CO}-Y(Carboxymethyl)Y(Carboxymethyl)DWL[Bip]V[NMeA][dL][Dab]LVSC[Dab][AEEA][Aun]-OH; thioether N-14): the negative logarithm of the IC50 (pIC50) is 6.06. Regarding `CCC(C)[C@@H]1NC(=O)[C@H](Cc2ccc(-c3ccccc3)cc2)NC(=O)[C@H](CC(C)C)NC(=O)[C@H](Cc2c[nH]c3ccccc23)NC(=O)[C@H](CC(=O)O)NC(=O)[C@H](Cc2ccc(OCC(=O)O)cc2)NC(=O)[C@H](Cc2ccncc2)NC(=O)CSC[C@@H](C(=O)N[C@@H](CCCN)C(=O)NCCOCCOCC(=O)NCCCCCCCCCCC(=O)O)NC(=O)[C@H](C(C)O)NC(=O)[C@H](C(C)C)NC(=O)[C@H](CC2CCCCC2)NC(=O)[C@H](CCN)NC(=O)[C@@H](CC(C)C)NC(=O)[C@H](C)N(C)C1=O` (stereo partly drawn) [Example 2040] ({CH2CO}-[4Pal]Y(Carboxymethyl)DWL[Bip][Ile(3ξ)][NMeA][dL][Dab][Cha]V[Thr(3ξ)]C[Orn][AEEA][Aun]-OH; thioether N-14), the pIC50 was 8.06. Next, `CCC(C)[C@@H]1NC(=O)[C@H](Cc2ccc(-c3ccccc3)cc2)NC(=O)[C@H](CC(C)C)NC(=O)[C@H](Cc2cccc(C)c2)NC(=O)[C@H](CC(=O)O)NC(=O)[C@H](Cc2ccc(OCC(=O)O)cc2)NC(=O)[C@H](Cc2ccc(OCC(=O)O)cc2)NC(=O)CSC[C@@H](C(=O)NCCOCCOCC(=O)N[C@@H](CCC(=O)NCCCCCCCCCCC(=O)O)C(=O)O)NC(=O)[C@H](CO)NC(=O)[C@H](C(C)C)NC(=O)[C@H](CC(C)C)NC(=O)[C@H](CCN)NC(=O)[C@@H](CC(C)C)NC(=O)[C@H](C)N(C)C1=O` (stereo partly drawn) [Example 2043] ({CH2CO}-Y(Carboxymethyl)Y(Carboxymethyl)D[Phe(3-Me)]L[Bip][Ile(3ξ)][NMeA][dL][Dab]LVSC[AEEA][γGlu][Aun]-OH; thioether N-14): 7.76; `CCC(C)[C@@H]1NC(=O)[C@H](Cc2ccc(-c3ccccc3)cc2)NC(=O)[C@H](CC(C)C)NC(=O)[C@H](Cc2c[nH]c3ccccc23)NC(=O)[C@H](CC(=O)O)NC(=O)[C@H](Cc2ccc(OCC(=O)O)cc2)NC(=O)[C@H](CCCCNC(=N)N)NC(=O)CSC[C@@H](C(=O)NCCOCCOCC(=O)N[C@@H](CCC(=O)NCCCCCCCCCCC(=O)O)C(=O)O)NC(=O)[C@H](CO)NC(=O)[C@H](C(C)C)NC(=O)[C@H](CC(C)C)NC(=O)[C@H](CCN)NC(=O)[C@@H](CC(C)C)NC(=O)[C@H](C)N(C)C1=O` (stereo partly drawn) [Example 2044] ({CH2CO}-[hArg]Y(Carboxymethyl)DWL[Bip][Ile(3ξ)][NMeA][dL][Dab]LVSC[AEEA][γGlu][Aun]-OH; thioether N-14): 7.17. For the compound `CCC(C)[C@@H]1NC(=O)[C@H](Cc2ccc(-c3ccccc3)cc2)NC(=O)[C@H](CC(C)C)NC(=O)[C@H](Cc2c[nH]c3ccccc23)NC(=O)[C@H](CC(=O)O)NC(=O)[C@H](Cc2ccc(OCC(=O)O)cc2)NC(=O)[C@H](Cc2ccncc2)NC(=O)CSC[C@@H](C(=O)NCCOCCOCC(=O)N[C@@H](CCC(=O)NCCCCCCCCCCC(=O)O)C(=O)O)NC(=O)[C@H](CO)NC(=O)[C@H](C(C)C)NC(=O)[C@H](CC2CCCCC2)NC(=O)[C@H](CCN)NC(=O)[C@@H](CC(C)C)NC(=O)[C@H](C)N(C)C1=O` (stereo partly drawn) [Example 2045] ({CH2CO}-[4Pal]Y(Carboxymethyl)DWL[Bip][Ile(3ξ)][NMeA][dL][Dab][Cha]VSC[AEEA][γGlu][Aun]-OH; thioether N-14), the pIC50 was 7.57. Next, `CCC(C)[C@@H]1NC(=O)[C@H](Cc2ccc(-c3ccccc3)cc2)NC(=O)[C@H](C(C)C)NC(=O)[C@H](Cc2c[nH]c3ccccc23)NC(=O)[C@H](CC(=O)O)NC(=O)[C@H](Cc2ccc(OCC(=O)O)cc2)NC(=O)[C@H](C(C)O)NC(=O)CSC[C@@H](C(=O)N[C@@H](CCCN)C(=O)N[C@@H](CCC(=O)NCCCCCCCCCCCC(=O)O)C(=O)O)NC(=O)[C@H](CO)NC(=O)[C@H](C(C)C)NC(=O)[C@H](CC2CCCCC2)NC(=O)[C@H](CCN)NC(=O)[C@@H](CC(C)C)NC(=O)[C@H](C)N(C)C1=O` (stereo partly drawn) [Example 2047] ({CH2CO}-[Thr(3ξ)]Y(Carboxymethyl)DWV[Bip][Ile(3ξ)][NMeA][dL][Dab][Cha]VSC[Orn][γGlu][12Ado]-OH; thioether N-14): 7.45; `CCC(C)[C@@H]1NC(=O)[C@H](Cc2ccc(-c3ccccc3)cc2)NC(=O)[C@H](C(C)C)NC(=O)[C@H](Cc2c[nH]c3ccccc23)NC(=O)[C@H](CC(=O)O)NC(=O)[C@H](Cc2ccc(O)cc2)NC(=O)[C@H](C(C)O)NC(=O)CSC[C@@H](C(=O)N[C@@H](CC(N)=O)C(=O)NCCOCCOCC(=O)NCCCCCCCCCCC(=O)O)NC(=O)[C@H](CO)NC(=O)[C@H](C(C)C)NC(=O)[C@H](CC(C)C)NC(=O)[C@H](CCN)NC(=O)[C@@H](CC(C)C)NC(=O)[C@H](C)N(C)C1=O` (stereo partly drawn) [Example 2050] ({CH2CO}-[Thr(3ξ)]YDWV[Bip][Ile(3ξ)][NMeA][dL][Dab]LVSCN[AEEA][Aun]-OH; thioether N-14): 7.59; `CCC(C)[C@@H]1NC(=O)[C@H](Cc2ccc(-c3ccccc3)cc2)NC(=O)[C@H](C(C)C)NC(=O)[C@H](Cc2c[nH]c3ccccc23)NC(=O)[C@H](CC(=O)O)NC(=O)[C@H](Cc2ccc(OCC(=O)O)cc2)NC(=O)[C@H](C(C)O)NC(=O)CSC[C@@H](C(=O)N[C@H](CC(N)=O)C(=O)NCCOCCOCC(=O)N[C@@H](CCC(=O)N[C@@H](CCCN)C(=O)NCCCCCCCCCCC(=O)O)C(=O)O)NC(=O)[C@H](CO)NC(=O)[C@H](C(C)C)NC(=O)[C@H](CC(C)C)NC(=O)[C@H](CCN)NC(=O)[C@@H](CC(C)C)NC(=O)[C@H](C)N(C)C1=O` (stereo partly drawn) [Example 2051] ({CH2CO}-[Thr(3ξ)]Y(Carboxymethyl)DWV[Bip][Ile(3ξ)][NMeA][dL][Dab]LVSC[dN][AEEA][γGlu][Orn][Aun]-OH; thioether N-14): 6.96. As to `CCC(C)[C@@H]1NC(=O)[C@H](Cc2ccc(-c3ccccc3)cc2)NC(=O)[C@H](CC(C)C)NC(=O)[C@H](Cc2c[nH]c3ccccc23)NC(=O)[C@H](CC(=O)O)NC(=O)[C@H](Cc2ccc(OCC(=O)O)cc2)NC(=O)[C@H](C(C)O)NC(=O)CSC[C@@H](C(=O)NCCOCCOCC(=O)N[C@@H](CCCN)C(=O)NCCCCCCCCCCC(=O)O)NC(=O)[C@H](CO)NC(=O)[C@H](C(C)C)NC(=O)[C@H](CC(C)C)NC(=O)[C@H](CC(N)=O)NC(=O)[C@@H](CC(C)C)NC(=O)[C@H](C)N(C)C1=O` (stereo partly drawn) [Example 2052] ({CH2CO}-[Thr(3ξ)]Y(Carboxymethyl)DWL[Bip][Ile(3ξ)][NMeA][dL]NLVSC[AEEA][Orn][Aun]-OH; thioether N-14), the negative logarithm of the IC50 (pIC50) is 7.10. Regarding `CCC(C)[C@@H]1NC(=O)[C@H](Cc2ccc(-c3ccccc3)cc2)NC(=O)[C@H](CC(C)C)NC(=O)[C@H](Cc2c[nH]c3ccccc23)NC(=O)[C@H](CC(=O)O)NC(=O)[C@H](Cc2ccc(O)cc2)NC(=O)[C@H](Cc2ccncc2)NC(=O)CSC[C@@H](C(=O)N[C@@H](CN)C(=O)NCCOCCOCC(=O)NCCCCCCCCCCC(=O)O)NC(=O)[C@H](CO)NC(=O)[C@H](C(C)C)NC(=O)[C@H](CC(C)C)NC(=O)[C@H](CC(N)=O)NC(=O)[C@@H](CC(C)C)NC(=O)[C@H](C)N(C)C1=O` (stereo partly drawn) [Example 2053] ({CH2CO}-[4Pal]YDWL[Bip][Ile(3ξ)][NMeA][dL]NLVSC[Dap][AEEA][Aun]-OH; thioether N-14), the pIC50 was 7.18. `CCC(C)[C@@H]1NC(=O)[C@H](Cc2ccc(-c3ccccc3)cc2)NC(=O)[C@H](CC(C)C)NC(=O)[C@H](Cc2c[nH]c3ccccc23)NC(=O)[C@H](CC(=O)O)NC(=O)[C@H](Cc2ccc(O)cc2)NC(=O)[C@H](CC#N)NC(=O)CSC[C@@H](C(=O)N[C@@H](CN)C(=O)NCCOCCOCC(=O)NCCCCCCCCCCC(=O)O)NC(=O)[C@H](CO)NC(=O)[C@H](C(C)C)NC(=O)[C@H](CC2CCCCC2)NC(=O)[C@H](CCN)NC(=O)[C@@H](CC(C)C)NC(=O)[C@H](C)N(C)C1=O` (stereo partly drawn) [Example 2054] ({CH2CO}-[Ala(CN)]YDWL[Bip][Ile(3ξ)][NMeA][dL][Dab][Cha]VSC[Dap][AEEA][Aun]-OH; thioether N-14): the pIC50 was 7.84. For `CCC(C)[C@@H]1NC(=O)[C@H](Cc2ccc(-c3ccccc3)cc2)NC(=O)[C@H](CC(C)C)NC(=O)[C@H](Cc2c[nH]c3ccccc23)NC(=O)[C@H](CC(=O)O)NC(=O)[C@H](Cc2ccc(O)cc2)NC(=O)[C@H](Cc2ccccc2)NC(=O)CSC[C@@H](C(=O)N[C@@H](CN)C(=O)NCCOCCOCC(=O)NCCCCCCCCCCC(=O)O)NC(=O)[C@H](CO)NC(=O)[C@H](C(C)C)NC(=O)[C@H](CC2CCCCC2)NC(=O)[C@H](CCN)NC(=O)[C@@H](CC(C)C)NC(=O)[C@H](C)N(C)C1=O` (stereo partly drawn) [Example 2055] ({CH2CO}-FYDWL[Bip][Ile(3ξ)][NMeA][dL][Dab][Cha]VSC[Dap][AEEA][Aun]-OH; thioether N-14), the pIC50 was 7.00. With `CCC(C)[C@@H]1NC(=O)[C@H](Cc2ccc(-c3ccccc3)cc2)NC(=O)[C@H](CC(C)C)NC(=O)[C@H](Cc2c[nH]c3ccccc23)NC(=O)[C@H](CC(=O)O)NC(=O)[C@H](Cc2ccc(C(=O)O)cc2)NC(=O)[C@H](Cc2ccc(OCC(=O)O)cc2)NC(=O)CSC[C@@H](C(=O)NCCOCCOCC(=O)N[C@H](CN)C(=O)NCCOCCOCC(=O)NCCCCCCCCCCC(=O)O)NC(=O)[C@H](CO)NC(=O)[C@H](C(C)C)NC(=O)[C@H](CC2CCCCC2)NC(=O)[C@H](CCN)NC(=O)[C@@H](CC(C)C)NC(=O)[C@H](C)N(C)C1=O` (stereo partly drawn) [Example 2056] ({CH2CO}-Y(Carboxymethyl)[Phe(4-COOH)]DWL[Bip][Ile(3ξ)][NMeA][dL][Dab][Cha]VSC[AEEA][dDap][AEEA][Aun]-OH; thioether N-14), the pIC50 is 7.70.

The values above are taken from US20260070945A1, “MACROCYCLIC IMMUNOMODULATORS” (Bristol-Myers Squibb Company, priority 2022, published 2026).
